Patent US8058295B2, “Cystic fibrosis transmembrane conductance regulator protein inhibitors and uses thereof” (The Regents of the University of California, priority 2002, dated 2011)

Experiments:
water channel (AQP1) = biological target: T1, water channel (AQP1) (Homo sapiens, UniProt P29972); experiment: Water channel block; settings: 5 μM
T1 sequence (P29972 1-269): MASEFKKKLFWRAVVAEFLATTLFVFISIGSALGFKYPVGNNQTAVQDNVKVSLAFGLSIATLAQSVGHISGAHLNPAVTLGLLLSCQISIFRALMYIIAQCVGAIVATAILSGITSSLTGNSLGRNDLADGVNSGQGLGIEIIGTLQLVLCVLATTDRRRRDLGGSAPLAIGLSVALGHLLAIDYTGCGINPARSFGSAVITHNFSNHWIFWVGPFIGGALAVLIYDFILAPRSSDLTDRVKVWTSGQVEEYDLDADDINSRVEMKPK

[1] = system: intestinal fluid absorption; experiment: Fluid absorption in mouse closed intestinal loops; format: in vivo, mice; settings: 20 μg intraperitoneal, measured at 30 min
Procedure: FIG. 10 is a set of graphs providing the results of characterization of the mouse closed-intestinal loop model. Panel A (FIG. 10A): Intestinal loops were injected with 200 μL buffer and loop weight measured at indicated times (mean±SEM, 4 mice per time point). […] Inset (top) Chemical structure of CFTRinh-172. Panel B (FIG. 10B): Time course of cholera toxin-induced fluid secretion in mouse closed-loop model. […] Data for injected loops (1 μg cholera toxin/loop) as mean±SEM (4-6 mice).
First, the kinetics of intestinal loop fluid absorption and secretion were determined to characterize the mouse model. To study absorption, loop fluid content was measured at specified times after injection of 200 μL of PBS into individual loops. […] To study secretion, intestinal loops were injected with cholera toxin (1 μg in 0.1 mL PBS).

[2] = Tissue distribution and elimination in mice after intravenous bolus; format: in vivo
Procedure: A bolus of ^14C-CFTRinh-172 (2 μCi) was administered intravenously over 1 min in mice (male CD1 mice, 30-35 grams) by tail vein. Mice were sacrificed at 5, 30, 120 and 240 min. Organs were removed, weighed and homogenized in distilled water (10-50 vol %). Radioactivity was determined by scintillation counting of the homogenates (25-50 μL) and expressed as total ^14C-radioactivity per organ (or per gram tissue for skeletal muscle). At the same time blood, urine and bile (from gallbladder or duodenum) were collected and ^14C-radioactivity was measured and expressed per mL of fluid. Elimination studies were done by collections of urine and stool over the first 24 hr after ^14C-CFTRinh-172 administration. Tissue distribution studies were also done on rats prepared as for pharmacokinetic studies.

[3] = Caco-2 permeability assay; format: in vitro ADME; settings: human, pH 7.3, Caco-2 monolayers, read-out: permeability coefficient (Papp)
Procedure: Caco-2 cells were cultured on porous inserts to give monolayer resistances of […]. For transport studies culture medium was replaced with an equal volume of Hank's buffered salt solution (HBSS) containing 15 mM glucose and 25 mM HEPES (pH 7.3).

wildtype CFTR = wildtype CFTR (Homo sapiens, UniProt P13569); experiment: YFP fluorescence assay of CFTR-mediated I^− transport in FRT cells; format: cell-based; design: expressed in transfected cells; host or cells: Fischer rat thyroid (FRT) cells
Chain of wildtype CFTR (P13569 whole entry): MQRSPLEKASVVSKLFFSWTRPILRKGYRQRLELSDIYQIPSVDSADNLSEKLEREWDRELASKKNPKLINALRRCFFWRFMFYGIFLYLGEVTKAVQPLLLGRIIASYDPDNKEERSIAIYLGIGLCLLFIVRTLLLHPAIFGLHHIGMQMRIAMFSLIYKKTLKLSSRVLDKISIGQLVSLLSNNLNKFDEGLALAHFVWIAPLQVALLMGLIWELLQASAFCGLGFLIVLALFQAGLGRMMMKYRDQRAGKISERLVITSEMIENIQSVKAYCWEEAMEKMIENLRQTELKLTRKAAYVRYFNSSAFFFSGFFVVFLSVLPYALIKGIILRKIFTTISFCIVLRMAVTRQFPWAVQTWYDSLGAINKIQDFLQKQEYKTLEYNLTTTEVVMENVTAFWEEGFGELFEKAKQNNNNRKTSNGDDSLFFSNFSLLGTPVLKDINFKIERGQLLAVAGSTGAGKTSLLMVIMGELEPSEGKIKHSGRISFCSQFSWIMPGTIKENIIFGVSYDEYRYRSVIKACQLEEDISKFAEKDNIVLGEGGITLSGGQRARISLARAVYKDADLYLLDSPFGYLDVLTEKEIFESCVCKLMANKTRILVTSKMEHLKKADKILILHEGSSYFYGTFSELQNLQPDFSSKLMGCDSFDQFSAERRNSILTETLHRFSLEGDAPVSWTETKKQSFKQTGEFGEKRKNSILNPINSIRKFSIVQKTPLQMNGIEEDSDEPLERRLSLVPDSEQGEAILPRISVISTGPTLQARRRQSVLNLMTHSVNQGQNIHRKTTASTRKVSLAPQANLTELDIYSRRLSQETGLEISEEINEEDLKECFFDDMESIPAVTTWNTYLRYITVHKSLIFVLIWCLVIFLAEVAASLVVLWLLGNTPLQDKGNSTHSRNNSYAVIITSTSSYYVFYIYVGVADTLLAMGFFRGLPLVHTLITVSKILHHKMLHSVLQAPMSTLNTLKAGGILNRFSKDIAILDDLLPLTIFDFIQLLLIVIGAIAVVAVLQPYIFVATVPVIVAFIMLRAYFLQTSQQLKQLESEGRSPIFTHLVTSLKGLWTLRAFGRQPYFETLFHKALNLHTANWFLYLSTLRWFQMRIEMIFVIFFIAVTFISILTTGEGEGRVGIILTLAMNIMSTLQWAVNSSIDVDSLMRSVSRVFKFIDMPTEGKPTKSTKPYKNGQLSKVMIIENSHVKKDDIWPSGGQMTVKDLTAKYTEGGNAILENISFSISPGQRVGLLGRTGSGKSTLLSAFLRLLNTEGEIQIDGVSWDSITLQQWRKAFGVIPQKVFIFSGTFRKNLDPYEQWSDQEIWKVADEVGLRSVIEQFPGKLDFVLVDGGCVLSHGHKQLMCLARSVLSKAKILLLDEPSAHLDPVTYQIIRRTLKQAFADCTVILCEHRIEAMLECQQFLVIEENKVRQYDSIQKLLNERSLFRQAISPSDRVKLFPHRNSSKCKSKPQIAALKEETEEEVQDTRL
Procedure: FIG. 1A is a schematic representation of a screening technique used for detection of CFTR inhibitors. CFTR was maximally stimulated by multiple agonists in stably transfected epithelial cells co-expressing human CFTR and a yellow fluorescent protein (YFP) having Cl^−/I^− sensitive fluorescence. After addition of a test compound, I^− influx was induced by adding an I^− containing solution.
Cells were plated in 96-well black-walled microplates (Corning Costar) at a density of 20,000 cells per well in Coon's modified F12 medium supplemented with 5% fetal calf serum, 2 mM L-glutamine, 100 U/mL penicillin, and 100 μg/mL streptomycin. Assays were done at 48 hours after plating at which time cells were just confluent (˜40,000 cells per well).
Assays were done using a customized screening system (Beckman) consisting of a 3-meter robotic arm, CO2 incubator, plate washer, liquid handling workstation, bar code reader, delidding station, and two FluoStar fluorescence plate readers (BMG Labtechnologies, Offenburg, Germany), each equipped with two syringe pumps and HQ500/20X (500±10 nm) excitation and HQ535/30M (535±15 nm) emission filters (Chroma). The robotic system was integrated using SAMI version 3.3 software (Beckman) modified for two plate readers. Custom software was written in VBA (Visual Basic for Applications) to compute baseline-subtracted, normalized fluorescence slopes (giving halide influx rates) from stored data files.
The assay was set-up by loading the incubator (37° C., 90% humidity, 5% CO2) with 40-60 96-well plates containing the FRT cells, and loading a carousel with 96-well plates containing test compounds and disposable plastic pipette tips. To initiate the assay, each well of a 96-well plate was washed 3 times in PBS (300 μL/wash), leaving 50 μL PBS. Ten μL of a CFTR-activating cocktail (5 μM forskolin, 100 μM IBMX, 25 μM apigenin in PBS) was added, and after 5 min one test compound (0.5 μL of 1 mM DMSO solution) was added to each well to give 10 μM final concentration. After 10 min, 96-well plates were transferred to a plate reader for fluorescence assay. Each well was assayed individually for CFTR-mediated I^− transport by recording fluorescence continuously (200 ms per point) for 2 s (baseline) and then for 12 s after rapid (<0.5 s) addition of 160 μL of isosmolar PBS in which 137 mM Cl^− was replaced by I^−.
The primary screening technique used to identify the compounds of the invention was designed to identify inhibitors of CFTR Cl^− conductance by direct CFTR-inhibitor interaction. CFTR was pre-stimulated in CFTR-expressing FRT cells by an activating cocktail containing forskolin, IBMX and apigenin, as shown schematically in FIG. 1A. The activation of CFTR by multiple mechanisms (cAMP elevation, phosphodiesterase inhibition, and direct CFTR binding) allowed identification of inhibitors that blocked the CFTR Cl^− transporting pathway directly rather than more proximal step(s) in a signaling pathway. The FRT cells co-expressed a yellow fluorescent protein-based Cl^−/I^− sensor that provided a quantitative fluorescence read-out of inhibition potency (See, e.g., Jayaraman et al., 2000, J. Biol. Chem. 275:6047-6050; Galietta et al., 2001, Am. J. Physiol. 281:C1734-C1742.). After CFTR pre-stimulation and compound addition, cells were subjected to an inwardly-directed I^− gradient to drive I^− influx and produce decreasing fluorescence. Each assay consisted of recording baseline fluorescence for 2 seconds, followed by 12 seconds of continuous recording of fluorescence after rapid addition of the I^− containing solution. Compounds were tested separately at 10 μM concentration in a 96-well format utilizing a fully-automated high-throughput screening apparatus (see Example 2 below).

## O=C(O)c1ccc(/C=C2\SC(=S)N(c3cccc(C(F)(F)F)c3)C2=O)cc1 [CFTRinh-172, 3-[(3-trifluoromethyl)phenyl]-5-[(4-carboxyphenyl)methylene]-2-thioxo-4-thiazolidinone]
Water channel (AQP1)
  block of water channel (AQP1): did not block
[1]
  rate of fluid absorption: did not alter the rate of fluid absorption
[2]; mice
  ratio of ^14C radioactivity in urine-to-blood: 5-7
[2]; mice, first 2 hours after infusion
  average urine radioactivity: 4.2±1.2×10^5 cpm/mL
[2]; mice, i.v. bolus
  ^14C radioactivity in brain, heart, skeletal muscle or testes: Little radioactivity
[2]; mice, later times (30-240 min)
  organ distribution of ^14C radioactivity: accumulated in the intestine
[2]; mice, urine and stool over first 24 hr
  excreted radioactivity found in the urine: 93±3%
[2]; mice, within 5 min after i.v. infusion
  organ distribution of ^14C radioactivity: primarily in liver and kidney
[2]; mouse, in vivo
  concentration of ^14C radioactivity in bile vs. blood: ~9 fold
[2]; rodents
  accumulation in other vital organs including heart, lung, skeletal muscle and testes: little CFTRinh-172 accumulation
  blood-brain barrier penetration: did not significantly cross the blood-brain barrier
[3]
  Papp A→B at 25 μM: 16 ×10⁻⁶ cm/s
Wildtype CFTR; dose-inhibition, FIG. 2A
  concentration giving significant CFTR inhibition: 0.3 to 0.6 µM
Wildtype CFTR; relative to CFTRinh-172 = 1.0
  relative potency (CFTR inhibition): 1.0
